Measured values: patent EP3086659B1, “NUTRITIONAL COMPOSITION FOR THE PREVENTION AND TREATMENT OF COPD AND RELATED SYMPTOMS” (Thompson S.r.L., priority 2013, dated 2015)
Read-outs that look alike come from different tables or passages of the source.

Legend:
[1] = Clinical study on volunteers: blood (serum) concentration and pharmacokinetic parameters of curcumin after oral administration; format: in vivo, healthy volunteers
Method: Subsequently, up to 1 h, a rapid decrease is observed followed by a gradual decline to 0 in the next three hours. The following Table lists the pharmacokinetic parameters (mean ± SEM). Table
The maximum serum concentration, when administered alone, was just 0.006 µg/ml 1 hour after administration, while in combination with piperine, the maximum serum concentration (Cmax) had increased to 0.18 µg/ml and was reached earlier at 0.75 h from the administration. The volume of distribution (Vd) and the total clearance value (CI) were not calculated for curcumin administered alone as it was not possible to determine the serum levels in most of the measurements of the greater number of subjects. […] 4 and in the preceding table reflect an increase in the bioavailability of curcumin equal to 2000% in the subjects treated with the combination of curcumin and piperine.

[2] = tested on: Nrf2; assay: Expression of Nrf2 protein in nuclear extracts (Western blot); format: cell-based, Human; conditions: 15 µM, after one hour up to 12h, three independent Western blots
Excerpt: Curcumin (CUR), N-acetyl-L-cysteine (NAC) and glutathione in reduced (GSH) and oxidised (GSSG) form and other reagents were supplied by Sigma. Human alveolar epithelial cells A549 were purchased from American Type Culture Collection (ATCC CCL-185). […] The combination of NAC and CUR induced a slightly higher level of Nrf2 expression.

[3] = tested on: Nrf2; assay: Nrf2 mRNA expression by quantitative real-time PCR compared to GAPDH; format: cell-based, Human; conditions: 15 µM, 6 h
Excerpt: (§1) Curcumin (CUR), N-acetyl-L-cysteine (NAC) and glutathione in reduced (GSH) and oxidised (GSSG) form and other reagents were supplied by Sigma. Human alveolar epithelial cells A549 were purchased from American Type Culture Collection (ATCC CCL-185). […] GRX is a key enzyme in the regulation of the cellular oxidative state, being responsible for the regeneration of GSH from GSSG and in the regeneration of dehydroascorbate.

[4] = tested on: glutathione reductase (GRX); assay: Glutathione reductase (GRX) mRNA expression by quantitative real-time PCR compared to GAPDH; format: cell-based, Human; conditions: 15 µM, 6 h
Excerpt: as §1

[5] = tested on: Human alveolar epithelial cells A549; assay: Determination of intracellular glutathione (GSH and GSSG), glutathione reductase-recycling analysis; format: cell-based; conditions: different concentrations (0-50 µM), 6 hours
Method: Curcumin (CUR), N-acetyl-L-cysteine (NAC) and glutathione in reduced (GSH) and oxidised (GSSG) form and other reagents were supplied by Sigma. Human alveolar epithelial cells A549 were purchased from American Type Culture Collection (ATCC CCL-185). Levels of reduced (GSH) and oxidised (GSSG) Glutathione were measured after exposure of the cells for 6 hours to curcumin, NAC and curcumin and NAC association (ratio 1/1) using the method already described in Calabrese et al. 1998; Motterlini et al. 2000a). Cells harvested in cold PBS were frozen-thawed three times and an aliquot of this suspension was added to a buffer solution containing […] of EDTA and 10 mM of 5,5-dithiobis- (2-nitrobenzoic acid). The total glutathione was measured by spectroscopy (optical density of 412 nm) using the glutathione reductase-recycling analysis. In order to determine the quantity of GSSG, an aliquot of the cell suspension was added to an equal volume of buffer containing EDTA and N-ethylmaleimide (10 mM). The sample was mixed and centrifuged and the supernatant was passed through a Sep-Pak C18 cartridge (Waters, Milford, MA) to remove the excess of N-ethylmaleimide. […] Intracellular glutathione was determined by comparison with a standard curve obtained with standard solutions of GSH and GSSG and was expressed as nmoles/mg protein. […]

[6] = tested on: HO-1; assay: HO-1 mRNA expression by quantitative real-time PCR compared to GAPDH; format: cell-based, Human; conditions: 15 µM, 6 h
Excerpt: as §1

Structure (SMILES) | Tmax ([1]; human, 2 g, serum curcumin, oral administration, healthy volunteers (n = 8), mean ± SEM) | Cmax ([1]; human, 2 g, serum curcumin, oral administration, healthy volunteers (n = 8), mean ± SEM, read-out: Cmax) | Serum levels of curcumin ([1]; oral, 2 g of curcumin alone or with 20 mg of piperine, measurements up to 0.75 h) | Cmax ([1]; serum curcumin, oral administration, healthy volunteers (n = 8), mean ± SEM) | AUC(0-∞) ([1]; serum curcumin, oral administration, healthy volunteers (n = 8), trapezoidal method, mean ± SEM) | expression of the protein Nrf2 in the nucleic extracts [2] | Nrf2 mRNA [3] | glutathione reductase (GRX) mRNA [4] | levels of GSSG [5] | intracellular GSH ([5]; dose-dependent) | HO-1 mRNA [6]
COc1cc(/C=C/C(=O)CC(=O)/C=C/c2ccc(O)c(OC)c2)ccc1O [Curcumin, (1E, 6E)-1,7-bis-(4-hydroxy-3-methoxyphenyl)-epta-1,6-dien-3,5-dione] | 1 h | 6 ng/mL | very low or undetectable | 6 ± 5 ng/mL | 0.004 µg/h/mL |  |  |  |  |  | 
CC(=O)N[C@@H](CS)C(=O)O [NAC, N-acetyl-L-cysteine] |  |  |  |  |  | not able to induce an increase | not active | able to induce GRX significantly | did not increase | increase of GSH | not active
